From ChEMBL document CHEMBL4265976, “Synthesis, molecular docking and inhibition studies of novel 3-N-aryl substituted-2-heteroarylchromones targeting microtubule affinity regulating kinase 4 inhibitors” (Eur J Med Chem, 2018)
Activity calls are given as the source filed them. The rule behind the calls is not given here.

What was measured:
[1] = biological target: T1, MAP/microtubule affinity-regulating kinase 4 (Homo sapiens, UniProt Q96L34); experiment: Inhibition of MARK4 (unknown origin) (59 to 368 residues) expressed in Escherichia coli M15 in presence of [gamma-32P]ATP by ATPase assay
T1 sequence (Q96L34 whole entry): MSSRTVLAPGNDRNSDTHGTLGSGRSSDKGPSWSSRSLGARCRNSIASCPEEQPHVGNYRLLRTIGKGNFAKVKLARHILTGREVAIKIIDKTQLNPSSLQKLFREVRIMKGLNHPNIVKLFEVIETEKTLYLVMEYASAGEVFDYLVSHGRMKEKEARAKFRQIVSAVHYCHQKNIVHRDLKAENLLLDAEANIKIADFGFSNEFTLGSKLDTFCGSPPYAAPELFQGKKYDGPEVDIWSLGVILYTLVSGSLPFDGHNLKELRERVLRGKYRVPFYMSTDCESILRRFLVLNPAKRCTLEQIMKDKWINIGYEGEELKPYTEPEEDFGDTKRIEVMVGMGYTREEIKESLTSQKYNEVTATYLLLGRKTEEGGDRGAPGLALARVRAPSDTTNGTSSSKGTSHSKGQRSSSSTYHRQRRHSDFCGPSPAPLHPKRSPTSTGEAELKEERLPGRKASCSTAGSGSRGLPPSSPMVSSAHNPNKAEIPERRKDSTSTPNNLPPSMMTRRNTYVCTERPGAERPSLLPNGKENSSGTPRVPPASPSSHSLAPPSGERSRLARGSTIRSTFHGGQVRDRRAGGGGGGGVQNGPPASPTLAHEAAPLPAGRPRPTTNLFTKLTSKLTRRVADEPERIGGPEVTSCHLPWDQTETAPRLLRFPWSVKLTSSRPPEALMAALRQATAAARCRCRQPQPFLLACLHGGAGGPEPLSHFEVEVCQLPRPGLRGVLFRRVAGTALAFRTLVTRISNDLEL

[2] = biological target: T2, MAP/microtubule affinity-regulating kinase 4 (Homo sapiens) (UniProt Q96L34); experiment: Inhibition of MARK4 (unknown origin) (59 to 368 residues) expressed in Escherichia coli M15 3 to 10 uM by dot blot assay
T2 sequence (whole entry): T1 sequence (Q96L34 whole entry)

[3] = biological target: T2, MAP/microtubule affinity-regulating kinase 4 (Homo sapiens); experiment: Binding affinity to MARK4 (unknown origin) (59 to 368 residues) expressed in Escherichia coli M15 up to 10 uM by fluorescence based Stern-Volmer plot analysis
MCF7 [4] = experiment: Antiproliferative activity against human MCF7 cells after 48 hrs by MTT assay; type: functional, cell-based; details: for IC50: MCF7, 48 h
HepG2 [5] = experiment: Antiproliferative activity against human HepG2 cells after 48 hrs by MTT assay; type: functional, cell-based; details: for IC50: HepG2, 48 h
[6] = Cytotoxicity against human HEK293 cells assessed as cell viability up to 200 uM after 72 hrs by MTT assay relative to control; type: cell-based; details: read-out: Activity
MCF7 [7] = experiment: Induction of apoptosis in human MCF7 cells assessed as viable cells at IC50 after 24 to 48 hrs by Annexin V-FITC staining-based flow cytometric analysis relative to control; type: functional
MCF7 [8] = experiment: Induction of apoptosis in human MCF7 cells assessed as early apoptotic cells at IC50 after 24 to 48 hrs by Annexin V-FITC staining-based flow cytometric analysis (reference value: 0%); type: functional
MCF7 [9] = experiment: Induction of apoptosis in human MCF7 cells assessed as late apoptotic cells at IC50 after 24 to 48 hrs by Annexin V-FITC staining-based flow cytometric analysis (reference value: 0%); type: functional
MCF7 [10] = experiment: Induction of apoptosis in human MCF7 cells assessed as necrotic cells at IC50 after 24 to 48 hrs by Annexin V-FITC staining-based flow cytometric analysis (reference value: 0%); type: functional
HepG2 [11] = experiment: Induction of apoptosis in human HepG2 cells assessed as viable cells at IC50 after 24 to 48 hrs by Annexin V-FITC staining-based flow cytometric analysis relative to control; type: functional
HepG2 [12] = experiment: Induction of apoptosis in human HepG2 cells assessed as early apoptotic cells at IC50 after 24 to 48 hrs by Annexin V-FITC staining-based flow cytometric analysis (reference value: 0%); type: functional
HepG2 [13] = experiment: Induction of apoptosis in human HepG2 cells assessed as late apoptotic cells at IC50 after 24 to 48 hrs by Annexin V-FITC staining-based flow cytometric analysis (reference value: 0%); type: functional
HepG2 [14] = experiment: Induction of apoptosis in human HepG2 cells assessed as necrotic cells at IC50 after 24 to 48 hrs by Annexin V-FITC staining-based flow cytometric analysis (reference value: 0%); type: functional
[15] = biological target: T2, MAP/microtubule affinity-regulating kinase 4 (Homo sapiens); experiment: Inhibition of MARK4-mediated tau phosphorylation in human MCF7 cells at IC50 after 24 hrs by flow cytometric analysis; type: cell-based
MCF7 [16] = experiment: Induction of ROS generation in human MCF7 cells at IC50 after 5 to 6 hrs by DCFDA staining based flow cytometric analysis; type: functional, cell-based

IC50 [1]	inhibition [2]	Activity [3]	IC50 (MCF7 [4])	IC50 (HepG2 [5])	inhibition [15]	Compound	Activity (MCF7 [4])	Activity (HepG2 [5])	viability at 72 h [6]	Activity (MCF7 [7])	Activity (MCF7 [8])	Activity (MCF7 [9])	Activity (MCF7 [10])	Activity (HepG2 [11])	Activity (HepG2 [12])	Activity (HepG2 [13])	Activity (HepG2 [14])	Activity (MCF7 [16])
5.56 µM	Active	Active	16.2 µM	19.1 µM	Active	COc1ccc(Nc2c(-c3ccco3)oc3ccccc3c2=O)cc1	Dose-dependent effect	Dose-dependent effect	85%	80.1%	18.7%	1.21%	0.027%	87%	5.13%	4.79%	3.12%	Active
1.98 µM	Active	Active	4.32 µM	5.22 µM	Active	O=c1c(Nc2ccc(I)cc2)c(-c2ccco2)oc2c(Cl)cc(Cl)cc12	Dose-dependent effect	Dose-dependent effect	85%	70.1%	27.9%	1.9%	0.15%	82.3%	15.2%	2.56%	0.013%	Active
2.12 µM	Active	Active	3.22 µM	6.45 µM	Active	O=c1c(Nc2ccc([N+](=O)[O-])cc2)c(-c2ccco2)oc2c(Cl)cc(Cl)cc12	Dose-dependent effect	Dose-dependent effect	85%	55.8%	26.5%	15.9%	1.72%	80.6%	8.53%	6.54%	4.33%	Active
